Key:
IDH1 R132C = molecular target: T1, IDH1 R132C (Homo sapiens, UniProt O75874, R132C); test: Detection of 2-HG in supernatant of HT1080 cells carrying IDH1 R132C; type: cell-based; conditions: 72 h, LC-MS-MS
T1 construct: endogenous in cells; host or cells: HT1080
Procedure: (§1) U87MG cells overexpressing the mIDH1 R132H mutation or HT1080 cells carrying IDH1 R132C were seeded in a 48-well plate and a 96-well plate at 50,000 cells/well and 10,000 cells/well, respectively. After the cells were incubated overnight for adhesion, the supernatants were removed. The cell culture media containing serially diluted compounds were added, and the cells were incubated for 72 h. After 72 h, the culture media were collected and diluted 10-fold and 20-fold with water, respectively. Acetonitrile was added to extract the metabolites. The 2-HG content in the culture media was analyzed by LC-MS-MS. The percentage inhibition and IC50 of the compounds on 2-HG in the supernatant were calculated as compared with the control group.

mIDH1 R132H = molecular target: T2, mIDH1 R132H (Homo sapiens, UniProt O75874, R132H); test: Detection of 2-HG in supernatant of U87-IDH1 R132H cells; type: cell-based; conditions: U-87 MG, 72 h, U87MG cells overexpressing mIDH1 R132H, LC-MS-MS; for inhibition at 0.001 µM: 1 nM compound, read-out: Inhibition rate on 2-HG in the supernatant of U87-IDH R132H cells, 1 nM; for inhibition at 0.01 µM: 10 nM compound, read-out: Inhibition rate on 2-HG in the supernatant of U87-IDH R132H cells, 10 nM; for inhibition at 0.1 µM: 100 nM compound, read-out: Inhibition rate on 2-HG in the supernatant of U87-IDH R132H cells, 100 nM
T2 construct: expressed in transfected cells; host or cells: U87MG
Procedure: as §1

[1] = Stability test of human liver microsomes; type: in vitro ADME; conditions: 1 μM compound, 500 μg/ml human liver microsomes, NADPH regeneration system, 37° C.; read-out: Liver microsomal stability T1/2, Human
Procedure: (§2) After the 1 μM compound was incubated with 500 μg/ml of human or mouse liver microsomes and a NADPH regeneration system at 37° C. for different times, respectively, LC-MS-MS was used to analyze the remaining amount of the compound and calculate T1/2.

[2] = Stability test of mouse liver microsomes; type: in vitro ADME; conditions: 1 μM compound, 500 μg/ml mouse liver microsomes, NADPH regeneration system, 37° C.; read-out: Liver microsomal stability T1/2, Mouse
Procedure: as §2

T1 sequence (O75874 whole entry R132C): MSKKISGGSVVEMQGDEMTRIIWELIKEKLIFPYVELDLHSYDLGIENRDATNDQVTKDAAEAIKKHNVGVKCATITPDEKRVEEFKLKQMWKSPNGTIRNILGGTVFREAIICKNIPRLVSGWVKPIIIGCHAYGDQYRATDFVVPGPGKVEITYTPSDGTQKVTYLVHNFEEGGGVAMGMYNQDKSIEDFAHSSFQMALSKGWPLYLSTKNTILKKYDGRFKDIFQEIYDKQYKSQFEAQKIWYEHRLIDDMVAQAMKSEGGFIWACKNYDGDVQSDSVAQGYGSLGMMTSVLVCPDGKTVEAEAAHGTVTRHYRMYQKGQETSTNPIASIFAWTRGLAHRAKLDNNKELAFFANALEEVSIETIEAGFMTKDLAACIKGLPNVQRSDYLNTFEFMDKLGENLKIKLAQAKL
T2 sequence (O75874 whole entry R132H): as the sequence (O75874 whole entry R132C) above, with C132H counted along it

IC50 (IDH1 R132C) [nM] | inhibition at 0.001 µM (mIDH1 R132H) [%] | inhibition at 0.01 µM (mIDH1 R132H) [%] | inhibition at 0.1 µM (mIDH1 R132H) [%] | half-life at 1 μM [1] [min] | half-life at 1 μM [2] [min] | Compound
4.48 | 60 to 90 | > 90 | > 90 |  |  | C=CC(=O)N1CCN(C(CC2CC2)c2ccc([C@H](C)Nc3ncc4[nH]c(=O)n(CC)c4n3)cc2)CC1 (stereo partly drawn) [Compound 1, 2-(((1S)-1-(4-(1-(4-acryloylpiperazin-1-yl)-2-cyclopropylethyl)phenyl)ethyl)amino)-9-ethyl-7,9-dihydro-8H-purin-8-one]
1.22 |  |  |  | 5 | 4 | C=CC(=O)N1CCN([C@@H](CC2CC2)c2ccc([C@H](C)Nc3ncc4[nH]c(=O)n(C(C)C)c4n3)cc2)CC1 [Compound 3-1]
2.63 |  |  |  |  |  | C=CC(=O)N1CCN([C@@H](CC2CC2)c2ccc([C@H](C)Nc3ncc4[nH]c(=O)n(C5CCC5)c4n3)cc2)CC1 [Compound 5-1]

Second part, the compound before the results:

Compound | IC50 (IDH1 R132C) [nM] | inhibition at 0.001 µM (mIDH1 R132H) [%] | inhibition at 0.01 µM (mIDH1 R132H) [%] | inhibition at 0.1 µM (mIDH1 R132H) [%] | half-life at 1 μM [1] [min] | half-life at 1 μM [2] [min]
C=CC(=O)N1CCN([C@@H](CC2CC2)c2ccc([C@H](C)Nc3ncc4[nH]c(=O)n(CC)c4n3)cc2)CC1 [Compound 1-1] | 2.24 |  |  |  | 11.3 | 4.4
C=CC(=O)N1CCN(C(CC2CC2)c2ccc([C@H](C)Nc3ncc4[nH]c(=O)n(C(C)C)c4n3)cc2)CC1 (stereo partly drawn) [Compound 3] | 2.06 | 30 to 60 | > 90 | > 90 |  | 
C=CC(=O)N1CCN(C(CC2CC2)c2ccc(C(C)Nc3ncc4[nH]c(=O)n(C5CCCC5)c4n3)cc2)CC1 (stereo not drawn) [Compound 6-1] | 3.22 |  |  |  | 4.4 | 3.9
C=CC(=O)N1CCN([C@@H](CC2CC2)c2ccc([C@H](C)Nc3ncc4c(n3)N(CC)C(=O)OC4)cc2)CC1 [LY-3410738, reference compound] | 1.9 | 30 to 60 | > 90 | > 90 | 1.8 | 1.6

— patent US20240208978A1, “IDH MUTANT INHIBITOR AND USE THEREOF” (WIGEN BIOMEDICINE TECHNOLOGY (SHANGHAI) CO., LTD., priority 2021, published 2024)
